Laboratory results published in PubChem BioAssay AID651554 (The Scripps Research Institute Molecular Screening Center, 2012).
Active and inactive are the calls of the source.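 The calls were made as follows: active = either panel giving IC50 at or below 10 µM; inactive = both panels giving IC50 over 10 µM.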

Molecular target: Melanocortin receptor 4 (Homo sapiens) (UniProt P32245)
Assay: MC4R antagonists of Melanotan II cAMP, late-stage follow-up, cell-based, FRET, biased ligands (AID 651554)
Conditions: U2OS MC4R, Melanotan II cAMP TR-FRET antagonist

Sequence of Melanocortin receptor 4 (Homo sapiens) (P32245 whole entry, looked up): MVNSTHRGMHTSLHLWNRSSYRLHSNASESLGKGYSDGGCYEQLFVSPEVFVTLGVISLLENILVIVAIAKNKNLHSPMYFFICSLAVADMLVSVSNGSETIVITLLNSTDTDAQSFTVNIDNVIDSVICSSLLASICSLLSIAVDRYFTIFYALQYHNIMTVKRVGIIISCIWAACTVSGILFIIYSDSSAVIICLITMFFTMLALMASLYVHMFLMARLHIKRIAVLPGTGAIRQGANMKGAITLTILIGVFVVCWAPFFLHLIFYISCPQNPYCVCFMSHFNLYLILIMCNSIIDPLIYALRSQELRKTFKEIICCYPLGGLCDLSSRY

| Compound | IC50 (run 1) | IC50 (run 2) |
| --- | --- | --- |
| COc1ccccc1C1(CCNC(C)c2cccs2)CCOC(C(C)C)C1 (stereo not given) | 8.15 µM | – |
| Cc1ccc(CN2Cc3cnnn3-c3ccccc3C2C#N)c(C)c1 (stereo not given) | – | > 50 µM (inactive) |
| CCC1CCCCN1S(=O)(=O)c1ccc(NC(=O)c2ccnc(S(C)=O)n2)cc1 (stereo not given) | – | > 50 µM (inactive) |
| CC(=O)N(c1ccccc1)C(C(=O)NC1CCCC1)c1cccs1 (stereo not given) | – | > 50 µM (inactive) |
| CNC(=O)c1cc(Oc2ccc(NCC(=O)Nc3ccc(Cl)c(C(F)(F)F)c3)cc2)ccn1 | > 50 µM (inactive) | – |
| CNC(=O)c1cc(Oc2ccc(NC(=O)CNc3ccc(Cl)c(C(F)(F)F)c3)cc2)ccn1 | > 50 µM (inactive) | – |
| Cc1ccccc1CN1Cc2cnnn2-c2ccccc2C1C#N (stereo not given) | > 50 µM (inactive) | – |
| CCC1CCCCN1S(=O)(=O)c1ccc(NC(=O)c2ccnc(S(C)(=O)=O)n2)cc1 (stereo not given) | – | inactive |
| Cc1ccccc1CN1Cc2ccccc2-n2nncc2C1 | – | > 50 µM (inactive) |
| O=C(NC1CCCC1)C(Nc1ccccc1)c1cccs1 (stereo not given) | – | > 50 µM (inactive) |
| COc1ccc(N(C(=O)Cc2cccs2)C(C(=O)NC2CCCC2)c2cccs2)cc1OC (stereo not given) | – | > 50 µM (inactive) |
| CC1CCCCN1S(=O)(=O)c1ccc(NC(=O)c2nc(S(C)(=O)=O)ncc2Cl)cc1 (stereo not given) | inactive | – |
| N#CC1c2ccccc2-n2nncc2CN1C(=O)c1ccccc1 (stereo not given) | – | > 50 µM (inactive) |
| CC(=O)c1ccc(Nc2nc3ccc(C(=O)N(CCC(C)C)CCC(C)C)cc3n2CCCN2CCCCC2)cc1 | 0.0174 µM | 0.0365 µM |
| CNC(=O)c1cc(Oc2ccc(NC(=O)Nc3ccc(Cl)c(C(F)(F)F)c3)cc2)ccn1 | inactive | – |
| Cc1ccc(CN2Cc3ccccc3-n3nncc3C2)c(C)c1 | – | > 50 µM (inactive) |
| COc1ccc(N(C(C)=O)C(C(=O)NC2CCCC2)c2cccs2)cc1OC (stereo not given) | > 50 µM (inactive) | – |
| CCC1CCCCN1S(=O)(=O)c1ccc(NC(=O)c2nc(S(C)(=O)=O)ncc2Br)cc1 (stereo not given) | – | > 50 µM (inactive) |
| CCC1CCCCN1S(=O)(=O)c1ccc(NC(=O)c2ccnc(SC)n2)cc1 (stereo not given) | > 50 µM (inactive) | – |
| CCC1CCCCN1S(=O)(=O)c1ccc(NC(=O)c2ccccc2)cc1 (stereo not given) | > 50 µM (inactive) | > 50 µM (inactive) |
| COc1ccc(N(C(=O)c2ccco2)C(C(=O)NC2CCCC2)c2cccs2)cc1OC (stereo not given) | – | > 50 µM (inactive) |
| C#CC(=O)N(c1ccc(OC)c(OC)c1)C(C(=O)NC1CCCC1)c1cccs1 (stereo not given) | > 50 µM (inactive) | – |
| CCC1CCCCN1S(=O)(=O)c1ccc(NC(=O)c2cccc(S(C)(=O)=O)c2)cc1 (stereo not given) | > 50 µM (inactive) | – |
